For this assay, the target named is T1, recombinant CETP (rCETP) (Homo sapiens, UniProt P11597).
T1 sequence (P11597 18-493): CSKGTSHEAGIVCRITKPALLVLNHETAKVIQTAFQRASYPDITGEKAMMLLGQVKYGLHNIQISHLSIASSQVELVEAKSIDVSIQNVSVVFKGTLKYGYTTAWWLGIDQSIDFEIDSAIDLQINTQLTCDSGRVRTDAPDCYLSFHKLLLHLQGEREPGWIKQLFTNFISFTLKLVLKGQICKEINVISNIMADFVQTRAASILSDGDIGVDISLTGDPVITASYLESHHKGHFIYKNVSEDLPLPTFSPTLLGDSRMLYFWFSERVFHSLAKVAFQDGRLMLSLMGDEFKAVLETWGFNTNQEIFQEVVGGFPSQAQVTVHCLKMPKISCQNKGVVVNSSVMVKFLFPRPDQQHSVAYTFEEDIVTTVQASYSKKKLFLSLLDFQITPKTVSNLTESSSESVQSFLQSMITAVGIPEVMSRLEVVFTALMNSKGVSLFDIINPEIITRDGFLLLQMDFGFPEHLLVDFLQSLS
Put plainly: RTA assay using recombinant CETP (2% RTA). To be noted: RTA assay in 2% human serum; read-out: IC50. It counts as biochemical. Here is the method: In Vitro Radioactive Assays of CETP-Catalyzed CE and TG Transfer (RTA Assay)
Reagents and sources are: [3H] cholesteryl oleate (GE #TRK.886), [3H]
Both assays measure the transfer of [3H] cholesteryl oleate or [3H]triolein from exogenous LDL to HDL.
After a brief vortex, the solution is sonicated until clear and mixed with 20 mL of fresh human serum. The mixture is incubated overnight at 37° C. […] Once isolated the particles are dialyzed 3× in CETP buffer (50 mM Tris, pH 7.4, 100 mM NaCl, 1 mM EDTA). Human HDL is purchased from Intracel and used as the acceptor particles.
Transfer assays are performed in a 96-well v-bottom polypropylene plate. […] 1 μL of each test compound diluted in DMSO is added to 47 μL of assay cocktail per well and incubated at 37° C. for 1 hour. To initiate the transfer reaction, 2 μL radiolabeled LDL is added. After an additional 60 min of incubation at 37° C., the transfer action is terminated by precipitation of LDL with an equal volume of 20% W/V PEG 8000. The plates are centrifuged at 2000 rpm for 30 minutes at 4° C. A 40 μL aliquot of the HDL-containing supernatant is transferred to a Packard Optiplate with 200 μL of MicroScint 20. After mixing, plates are counted by liquid scintillation. Counts present in the supernatant for blanks (wells containing only HDL acceptor, CETP buffer and DMSO) are subtracted from those containing test compounds and used to correct for non-specific transfer.
Comparison of the counts of samples with inhibitors to an uninhibited (DMSO only) positive control yield a percent inhibition. A plot of percent inhibition vs. log of inhibitor concentration, fit to a Sigmoidal 4 parameter equation is used to calculate IC50.

pIC50: −log10 of the molar value.

Turning to `COC(=O)[C@@H]1CC[C@@H](c2ccc(OC)c(-c3c(C)cc(N4CCC4)nc3CN3C(=O)O[C@H](c4cc(C(F)(F)F)cc(C(F)(F)F)c4)[C@@H]3C)c2)C1` (mixture of isomers) [Example 216], the pIC50 – broadly, −log10 of the IC50, conventionally taken in molar units – is 8.05.
For `COc1ccc(C2CCC(O)C2)cc1-c1ccc(N2CCC2)nc1CN1C(=O)O[C@H](c2cc(C(F)(F)F)cc(C(F)(F)F)c2)[C@@H]1C` (mixture of isomers) [Example 262] the value was 8.52.
For `COc1ccc(C2CCC(O)C2)cc1-c1ccc(N2CCC2)nc1CN1C(=O)O[C@H](c2cc(C(F)(F)F)cc(C(F)(F)F)c2)[C@@H]1C` (mixture of isomers) [Example 263] the value was 8.30; for `COC(=O)[C@@H]1CC[C@@H](c2ccc(OC)c(-c3ccc(N4CCC4)nc3CN3C(=O)O[C@H](c4cc(C(F)(F)F)cc(C(F)(F)F)c4)[C@@H]3C)c2)C1` (racemic) [Example 214], 8.10.
Turning to `COC(=O)CCc1ccc(OC)c(-c2c(C)cc(N3CCC3)nc2CN2C(=O)O[C@H](c3cc(C(F)(F)F)cc(C(F)(F)F)c3)[C@@H]2C)c1` (single isomer, unassigned) [Example 39], the pIC50 is 8.52.
Next, `COc1ccc([C@H]2C[C@@H](C(=O)OC)C2)cc1-c1c(C)cc(N2CCC2)nc1CN1C(=O)O[C@H](c2cc(C(F)(F)F)cc(C(F)(F)F)c2)[C@@H]1C` (single isomer, unassigned) [Example 41]: 8.40; `COc1ccc([C@H]2C[C@@H](C(=O)OC)C2)cc1-c1c(C)cc(N2CCC2)nc1CN1C(=O)O[C@H](c2cc(C(F)(F)F)cc(C(F)(F)F)c2)[C@@H]1C` (single isomer, unassigned) [Example 42]: 6.99; `COC(=O)[C@H]1CC[C@@H](c2ccc(OC)c(-c3ccc(N4CCC4)nc3CN3C(=O)O[C@H](c4cc(C(F)(F)F)cc(C(F)(F)F)c4)[C@@H]3C)c2)C1` (single isomer, unassigned) [Example 217]: 7.72.
Next, `COC(=O)[C@H]1CC[C@@H](c2ccc(OC)c(-c3ccc(N4CCC4)nc3CN3C(=O)O[C@H](c4cc(C(F)(F)F)cc(C(F)(F)F)c4)[C@@H]3C)c2)C1` (single isomer, unassigned) [Example 218]: 7.92; `COc1ccc([C@@H]2CC[C@@H](C(=O)O)C2)cc1-c1ccc(N2CCC2)nc1CN1C(=O)O[C@H](c2cc(C(F)(F)F)cc(C(F)(F)F)c2)[C@@H]1C` (single isomer, unassigned) [Example 238]: 8.30.
As to `COc1ccc([C@@H]2CC[C@@H](C(=O)O)C2)cc1-c1ccc(N2CCC2)nc1CN1C(=O)O[C@H](c2cc(C(F)(F)F)cc(C(F)(F)F)c2)[C@@H]1C` (single isomer, unassigned) [Example 239], the pIC50 is 8.15.
Regarding `COc1ccc([C@@H]2CC[C@H](C(=O)O)C2)cc1-c1ccc(N2CCC2)nc1CN1C(=O)O[C@H](c2cc(C(F)(F)F)cc(C(F)(F)F)c2)[C@@H]1C` (single isomer, unassigned) [Example 245], the negative logarithm of the IC50 (pIC50) is 8.05.
Next, `COc1ccc([C@@H]2CC[C@H](C(=O)O)C2)cc1-c1ccc(N2CCC2)nc1CN1C(=O)O[C@H](c2cc(C(F)(F)F)cc(C(F)(F)F)c2)[C@@H]1C` (single isomer, unassigned) [Example 246]: 7.92.
For `COC(=O)CCc1ccc(OC)c(-c2ccc(N3CCC3)nc2CN2C(=O)O[C@H](c3cc(C(F)(F)F)cc(C(F)(F)F)c3)[C@@H]2C)c1` [Example 1, Methyl 3-{3-[6-azetidin-1-yl-2-({(4S,5R)-5-[3,5-bis(trifluoromethyl)phenyl]-4-methyl-2-oxo-1,3-oxazolidin-3-yl}methy)pyridin-3-yl]-4-methoxyphenyl}propanoate] the value was 8.10; for `COC(=O)CCc1ccc(OC)c(-c2ccc(N3CCCC3)nc2CN2C(=O)O[C@H](c3cc(C(F)(F)F)cc(C(F)(F)F)c3)[C@@H]2C)c1` [Example 2], 7.48; for `CCOC(=O)[C@@H]1C[C@H]1c1ccc(OC)c(-c2ccc(N3CCC3)nc2CN2C(=O)O[C@H](c3cc(C(F)(F)F)cc(C(F)(F)F)c3)[C@@H]2C)c1` [Example 3], 8.22.
Next, `CCOC(=O)[C@H]1C[C@@H]1c1ccc(OC)c(-c2ccc(N3CCC3)nc2CN2C(=O)O[C@H](c3cc(C(F)(F)F)cc(C(F)(F)F)c3)[C@@H]2C)c1` [Example 4]: 8.22; `COC(=O)CCc1ccc(Cl)c(-c2ccc(N3CCC3)nc2CN2C(=O)O[C@H](c3cc(C(F)(F)F)cc(C(F)(F)F)c3)[C@@H]2C)c1` [Example 5]: 8.15; `CCOC(=O)CC1CCc2cc(OC)c(-c3ccc(N4CCC4)nc3CN3C(=O)O[C@H](c4cc(C(F)(F)F)cc(C(F)(F)F)c4)[C@@H]3C)cc21` (stereo partly shown) [Example 6]: 8.15.
For `COC(=O)CC(C)(C)c1ccc(OC)c(-c2ccc(N3CCC3)nc2CN2C(=O)O[C@H](c3cc(C(F)(F)F)cc(C(F)(F)F)c3)[C@@H]2C)c1` [Example 7], the pIC50 is 7.92.
Consider `COC(=O)Cc1ccc(OC)c(-c2ccc(N3CCC3)nc2CN2C(=O)O[C@H](c3cc(C(F)(F)F)cc(C(F)(F)F)c3)[C@@H]2C)c1` [Example 8], for which the pIC50 is 7.92.
Next, `COc1ccc([C@H]2CC[C@H](C(=O)OC)CC2)cc1-c1ccc(N2CCC2)nc1CN1C(=O)O[C@H](c2cc(C(F)(F)F)cc(C(F)(F)F)c2)[C@@H]1C` [Example 9]: 7.82.
Turning to `COc1ccc(CC(C)(C)C(=O)OC(C)(C)C)cc1-c1ccc(N2CCC2)nc1CN1C(=O)O[C@H](c2cc(C(F)(F)F)cc(C(F)(F)F)c2)[C@@H]1C` [Example 10], the pIC50 is 7.20.
For `COC(=O)CCc1ccc(OC)c(-c2ccc(N3CCC3)nc2CN2C(=O)O[C@H](c3ccc(F)c(F)c3)[C@@H]2C)c1` [Example 11] the value was 6.73; for `COC(=O)CC(C)(C)c1ccc(OC)c(-c2ccc(N3CCC3)nc2CN2C(=O)O[C@H](c3ccc(F)c(F)c3)[C@@H]2C)c1` [Example 12], 6.64; for `CCOC(=O)[C@@H]1C[C@H]1c1ccc(OC)c(-c2ccc(N3CCC3)nc2CN2C(=O)O[C@H](c3ccc(F)c(F)c3)[C@@H]2C)c1` [Example 13], 6.30.
Next, `COC(=O)CCc1ccc(OC)c(-c2ccc(N3CCC3)nc2CN2C(=O)O[C@H](c3cc(F)cc(F)c3)[C@@H]2C)c1` [Example 14]: 7.06; `COC(=O)CC(C)(C)c1ccc(OC)c(-c2ccc(N3CCC3)nc2CN2C(=O)O[C@H](c3cc(F)cc(F)c3)[C@@H]2C)c1` [Example 15]: 6.80; `CCOC(=O)[C@@H]1C[C@H]1c1ccc(OC)c(-c2ccc(N3CCC3)nc2CN2C(=O)O[C@H](c3cc(F)cc(F)c3)[C@@H]2C)c1` [Example 16]: 7.03.
On to `CCOC(=O)[C@H]1C[C@@H]1c1ccc(OC)c(-c2ccc(N3CCC3)nc2CN2C(=O)O[C@H](c3cc(F)cc(F)c3)[C@@H]2C)c1` [Example 17], for which the pIC50 was 6.74.
Next, `CCOC(=O)[C@@H]1C[C@@H]1c1ccc(OC)c(-c2ccc(N3CCC3)nc2CN2C(=O)O[C@H](c3cc(F)cc(F)c3)[C@@H]2C)c1` [Example 18]: 7.21.
For `COc1ccc([C@H]2CC[C@H](C(=O)OC)CC2)cc1-c1ccc(N2CCC2)nc1CN1C(=O)O[C@H](c2cc(F)cc(F)c2)[C@@H]1C` [Example 19] the value was 6.42; for `CCOC(=O)C[C@@H]1CCc2cc(OC)c(-c3ccc(N4CCC4)nc3CN3C(=O)O[C@H](c4cc(F)cc(F)c4)[C@@H]3C)cc21` [Example 20], 7.02; for `COC(=O)c1ccc(-c2cc(-c3ccc(N4CCC4)nc3CN3C(=O)O[C@H](c4cc(F)cc(F)c4)[C@@H]3C)c(OC)cc2F)c(C)c1` [Example 21], 7.66.
For `CCOC(=O)[C@@H]1C[C@H]1c1ccc(CC)c(-c2ccc(N3CCC3)nc2CN2C(=O)O[C@H](c3cc(C(F)(F)F)cc(C(F)(F)F)c3)[C@@H]2C)c1` [Example 22] the value was 7.96; for `COc1ccc([C@H]2C[C@@H](C(=O)OC)C2)cc1-c1ccc(N2CCC2)nc1CN1C(=O)O[C@H](c2cc(C(F)(F)F)cc(C(F)(F)F)c2)[C@@H]1C` [Example 23], 7.74; for `COc1ccc([C@H]2C[C@H](C(=O)OC)C2)cc1-c1ccc(N2CCC2)nc1CN1C(=O)O[C@H](c2cc(C(F)(F)F)cc(C(F)(F)F)c2)[C@@H]1C` [Example 24], 8.70.

Values taken from patent publication US9221834B2 (Merck Sharp & Dohme Corp., priority 2010, dated 2015).
